Test results: article PMC12582985, “Preparation and characterization of renal cell peptides from fetal rats for their antitumor activity” (FEBS Open Bio, 2025)

Tests used:
MCF‐10A cells = test: CCK‐8 cell viability assay, non‐tumor MCF‐10A; format: cell-based, human; conditions: CCK‐8, 48 h, triplicate; peptides 5–45 μg·mL^−1; 5‐FU positive control 0.1–5 mM; vs negative control
Source text: (§1) Human breast cancer MCF‐7 (RRID:CVCL_0031), human lung cancer A549 (RRID:CVCL_0023), human colon cancer HCT‐116 (RRID:CVCL_0291), human cervical cancer Hela (RRID:CVCL_0030), human hepatoma HepG2 (RRID:CVCL_0027), human gastric cancer SGC‐7901 (RRID:CVCL_0520) and human non‐tumor mamma gland epithelial MCF‐10A (RRID:CVCL_0598) and transformed human liver epithelial‐2 (THLE‐2) (RRID:CVCL_3803) cells were obtained from Shanghai Donghuan Biotechnology (Shanghai, China). All cell lines had been authenticated in the past 3 years and again within 4 months after completion of the experiments. All cell lines had been tested for mycoplasma contamination frequently. Their identities were characterized by short tandem repeat analysis. All of these cell lines were cultured in high glucose Dulbecco's modified Eagle's medium supplemented by 10% fetal bovine serum, 100 units·mL^−1 penicillin and 100 μg·mL^−1 streptomycin (complete culture medium).
(§2) MCF‐7 cells (1 × 10^4 cells per well) were treated in triplicate with different doses of each type of RC extract in 96‐well plates for varying time periods. The negative control cells were treated with the diluent of physiological saline, whereas positive control cells were treated with different concentrations (0.1–5 mM) of 5‐fluorouracil (5‐FU) (Leica, Wetzlar, Germany). During the last hour of culture, each well of cells was treated with 10 μL of CCK‐8 solution. The absorbance of the supernatants of individual wells was measured at 450 nm using a microplate reader. Similarly, the effect of different synthesized RCPs (5–45 μg·mL^−1) on the viability of different types of human cancer cells was tested with CCK‐8 assays using the diluent of physiological saline containing the same concentration of dimethylsulfoxide as a negative control and the same concentrations of 5‐FU as the positive controls. Ten RCPs with a predicted strong bioactivity were synthesized by GenScript ([…]) and their purity, sequences and solubility are shown in Table 1. […] The formula used to calculate the cytotoxicity rate of each concentration of RCP was: Cytotoxicity rate (%) = (absorbance value of the control group − absorbance value of the experimental group)/absorbance value of the control group × 100%. In addition, MCF‐7 cells were treated with each type of RCP at 45 μg·mL^−1 for 12–72 h and the dynamic impact of RCP treatment on the viability of MCF‐7 cells was determined every 12 h using CCK‐8 assays.
(§3) Data are expressed as the mean ± SEM. The data distribution was analyzed by Shapiro–Wilk test. The IC50 values of each peptide for individual cell lines were determined using the PRISM, version 8 (GraphPad Software Inc.). Briefly, all dose–response data were converted into […], which were automatically analyzed by PRISM for non‐linear regression to determine and report the IC50 and its SD for each peptide in a specific cell line. The difference among groups was analyzed by analysis of variance and post‐hoc Tukey's tests and the comparison between groups was performed using Student's t‐test and PRISM, version 8 (GraphPad Software Inc.). P < 0.05 was considered statistically significant.

SGC‐7901 cells = test: CCK‐8 cell viability assay, SGC‐7901; format: cell-based, human; conditions: CCK‐8, 48 h, triplicate; peptides 5–45 μg·mL^−1; 5‐FU positive control 0.1–5 mM; vs negative control
Source text: as §1, §2, §3

HCT‐116 cells = test: CCK‐8 cell viability assay, HCT‐116; format: cell-based, human; conditions: CCK‐8, 48 h, triplicate; peptides 5–45 μg·mL^−1; 5‐FU positive control 0.1–5 mM; vs negative control
Source text: as §1, §2, §3

MCF‐7 cells = test: CCK‐8 cell viability assay, MCF‐7; format: cell-based, human
Source text: as §1, §2, §3

THLE‐2 cells = test: CCK‐8 cell viability assay, non‐tumor THLE‐2; format: cell-based, human; conditions: CCK‐8, 48 h, triplicate; peptides 5–45 μg·mL^−1; 5‐FU positive control 0.1–5 mM; vs negative control
Source text: as §1, §2, §3

Hela cells = test: CCK‐8 cell viability assay, Hela; format: cell-based, human; conditions: CCK‐8, 48 h, triplicate; peptides 5–45 μg·mL^−1; 5‐FU positive control 0.1–5 mM; vs negative control
Source text: as §1, §2, §3

A549 cells = test: CCK‐8 cell viability assay, A549; format: cell-based, human; conditions: CCK‐8, 48 h, triplicate; peptides 5–45 μg·mL^−1; 5‐FU positive control 0.1–5 mM; vs negative control
Source text: as §1, §2, §3

HepG2 cells = test: CCK‐8 cell viability assay, HepG2; format: cell-based, human; conditions: CCK‐8, 48 h, triplicate; peptides 5–45 μg·mL^−1; 5‐FU positive control 0.1–5 mM; vs negative control
Source text: as §1, §2, §3

[1] = test system: cancer cells (MCF‐7, A549, HCT‐116, Hela, HepG2, SGC‐7901) vs non‐tumor MCF‐10A and THLE‐2 cells; test: CCK‐8 cytotoxicity, preference for cancer cells over non‐tumor cells; format: cell-based, human; parameters: cytotoxicity against non‐tumor MCF‐10A and THLE‐2 cells compared with tumor cell lines: dose or concentration left out as unconfirmed; conditions: for preference of cytotoxicity for cancer cells over non‐tumor cells: 5–45 μg·mL^−1, 48 h, CCK‐8
Source text: as §1, §2, §3

[2] = Solubility of the synthesized peptides; format: physicochemical; conditions: for Solubility: solvent given for the synthesized peptide (GenScript)
[3] = CCK‐8, 48 h, triplicate, peptides 5–45 μg·mL^−1, 5‐FU positive control 0.1–5 mM, vs negative control

Compound | viability of non‐tumor MCF‐10A cells (MCF‐10A cells) | viability of SGC‐7901 cells (SGC‐7901 cells) | viability of HCT‐116 cells (HCT‐116 cells) | viability of MCF‐7 cells (MCF‐7 cells; [3]) | viability of MCF‐7 cells (MCF‐7 cells; RC extract experiment, positive control 0.1–5 mM, dose‐dependent, P < 0.01) | viability of non‐tumor THLE‐2 cells (THLE‐2 cells) | viability of Hela cells (Hela cells) | viability of A549 cells (A549 cells) | viability of HepG2 cells (HepG2 cells) | preference of cytotoxicity for cancer cells over non‐tumor cells [1] | cytotoxicity against non‐tumor MCF‐10A and THLE‐2 cells compared with tumor cell lines ([1]; 48 h, P < 0.05 or P < 0.01) | aqueous solubility ([2]; in words) | Solubility [2] | dynamic cytotoxicity against MCF‐7 cells (MCF‐7 cells; 45 μg·mL^−1, 12–72 h, CCK‐8 every 12 h, maintained at highest levels to 72 h)
O=c1[nH]cc(F)c(=O)[nH]1 [5‐FU, 5‐fluorouracil, reference compound] | significantly decreased the viability | significantly decreased the viability | significantly decreased the viability | significantly decreased the viability | significantly reduced the viability | significantly decreased the viability | significantly decreased the viability | significantly decreased the viability | significantly decreased the viability | – | – | – | – | –
EWLKVPCLSTRLINPENMGF [RCP‐6, synthesized 20‐mer renal cell peptide from Sacsin molecular chaperone, trypsin digested] | only treatment with the highest doses of them slightly reduced the viability | significantly decreased the viability | significantly decreased the viability | significantly decreased the viability | – | only treatment with the highest doses of them slightly reduced the viability | significantly decreased the viability | significantly decreased the viability | significantly decreased the viability | potent cytotoxicity preferably against cancer cells | statistically lower than tumor cell lines | low aqueous solubility | 0.1% Dimethylsulfoxide | increased with time from 12 h post treatment to 48 h
FAGDDAPR [RCP‐4, synthesized 8‐mer renal cell peptide from Actin, cytoplasmic 2, trypsin digested] | decreased the viability | decreased the viability | decreased the viability | decreased the viability | – | decreased the viability | decreased the viability | decreased the viability | decreased the viability | did not preferably decrease the viability of tumor cells | – | – | Water, pH 7.0 | –
GIYAPDSPRAF [RCP‐8, synthesized 11‐mer renal cell peptide from Vanin 1, protamex‐digested] | decreased the viability | decreased the viability | decreased the viability | decreased the viability | – | decreased the viability | decreased the viability | decreased the viability | decreased the viability | did not preferably decrease the viability of tumor cells | – | – | 0.1% Dimethylsulfoxide | –
GPAGPQGPR [RCP‐3, synthesized 9‐mer renal cell peptide from Collagen alpha‐1 (I) chain, trypsin digested] | decreased the viability | decreased the viability | decreased the viability | decreased the viability | – | decreased the viability | decreased the viability | decreased the viability | decreased the viability | did not preferably decrease the viability of tumor cells | – | – | Water, pH 7.0 | –
IYAPDSPRAF [RCP‐10, synthesized 10‐mer renal cell peptide from Vanin 1, protamex‐digested] | decreased the viability | decreased the viability | decreased the viability | decreased the viability | – | decreased the viability | decreased the viability | decreased the viability | decreased the viability | did not preferably decrease the viability of tumor cells | – | – | Water, pH 7.0 | –
PAPPKPEPK [RCP‐9, synthesized 9‐mer renal cell peptide from Non‐histone chromosomal protein HMG‐17, trypsin digested] | decreased the viability | decreased the viability | decreased the viability | decreased the viability | – | decreased the viability | decreased the viability | decreased the viability | decreased the viability | did not preferably decrease the viability of tumor cells | – | – | Water, pH 7.0 | –
